# Experiments:
# caspase-3 = assay: Caspase-3 activity assay in 3T3L1 preadipocytes; type: cell-based, mouse; settings: 48 hours treatment
# Method: 50 μM of stearate, oleate or linoleate was used to treat 3T3L1 cells as this concentration is centered within the normal range for non-esterified stearate in the plasma of humans. Stearate, oleate, or linoleate was loaded onto fatty acid free BSA according to the method reported by Spector and Hoak (Spector and Hoak, 1969). Briefly, stearate (0.5 g) was dissolved in chloroform (100 mL) and mixed well with 10 g diatomaceous earth in a 1 liter flask. The mixture was stirred and dried under nitrogen until powder. Fatty acid free BSA (1 g) was dissolved in 100 mL with DMEM without phenol red and mixed with 3 g of the stearate/diatomaceous earth mixture and stirred for 30 minutes. The stearate/BSA solution was filtered through a 0.45 μm filter, and adjusted to pH 7.4. The concentration of stearate in the solution was detected by use of a NEFA C kit. Oleic and linoleate were loaded in the same way. All experimental data on 3T3L1 cells were confirmed using fatty acid free BSA control solutions that were put through the same preparatory procedure described except for the fact that no fatty acid was added. Before the treatment with fatty acid, 3T3L1 preadipocytes were grown to 100%, and were starved in 2% FBS medium for 24 hours.
# Caspase-3 activity was measured using the EnzCheck Capase-3 Activity Kit #1 according to the manufacturer's instructions (Molecular Probes Inc. Eugene, Oreg.).
# [1] = tested on: Hs578T human breast cancer cells; assay: Flow cytometry cell cycle analysis; type: cell-based; settings: 50 μM stearate
# Method: Hs578T human breast cancer cells (ATCC, HTB-126) were maintained according to the manufacturer's recommendations, in Dulbecco's modified Eagle's medium containing 10% fetal bovine serum, […] insulin and penicillin/streptomycin.
# The concentration of stearate used to treat the Hs578T cells was 50 μM. When EGF was used, the concentration was 1 nM EGF. Before the treatment with stearate or EGF, cells were first starved for 24-48 hours. Stearate was loaded onto fatty acid-free bovine serum albumin (BSA) according to the method reported by Spector et al. (13); briefly, stearate (0.5 g) was dissolved in chloroform (100 ml) and mixed well with 10 g diatomaceous earth in a 1 liter flask. The mixture was stirred and dried under nitrogen until powder. BSA is a physiological carrier of fatty acids and was used to avoid the introduction of organic solvents to solutions coming into contact with cells. […] The concentration of stearate in the solution was detected with the NEFA C Kit from Wako Chemicals GmbH (Neuss, Germany). […]
# To analyze cellular DNA content, confluent Hs578t cells were harvested, fixed in ice-cold 70% ethanol for 30 min and then resuspended in citrate buffer (4 mM sodium citrate) containing 50 μg/ml of propidium iodide and 100 μg/ml of RNase. […] Data were analyzed using the ModFit LT workshop program (BD Immunocytometry System, San Jose, Calif.).
# ERK = assay: Immunoblot of phosphorylated ERK in Hs578T cells; type: cell-based, human; settings: between 8 and 16 h post-stearate, sustained up to 24 h
# Method: The concentration of stearate used to treat the Hs578T cells was 50 μM. When EGF was used, the concentration was 1 nM EGF. Before the treatment with stearate or EGF, cells were first starved for 24-48 hours. Stearate was loaded onto fatty acid-free bovine serum albumin (BSA) according to the method reported by Spector et al. (13); briefly, stearate (0.5 g) was dissolved in chloroform (100 ml) and mixed well with 10 g diatomaceous earth in a 1 liter flask. The mixture was stirred and dried under nitrogen until powder. BSA is a physiological carrier of fatty acids and was used to avoid the introduction of organic solvents to solutions coming into contact with cells. Fatty acid-free BSA (1 g) was dissolved in 100 ml with Dulbecco's modified Eagle's medium without phenol red and mixed with 3 g of the stearate/diatomaceous earth mixture with stirring for 45 min. The stearate/BSA solution was filtered through a 0.45 μm filter, and adjusted to pH 7.4. The concentration of stearate in the solution was detected with the NEFA C Kit from Wako Chemicals GmbH (Neuss, Germany). All experimental data on Hs578T cells were controlled using fatty acid-free BSA control solutions that were put through the same preparatory procedure described for the stearate/BSA solution except for the fact that no fatty acid was added.
# Cells were treated as described above, and lysed with lysis buffer. […]
# Rho mRNA = assay: RT-PCR for RhoA, RhoB, RhoC in Hs578T cells; type: cell-based, human
# Method: In total, 30-40% confluent Hs578T cells were treated with stearate (50 μM) for 48 hours after starvation for 24 hours. Total RNA was extracted and reverse-transcribed as described in RT-PCR for p21^CIP1/WAF1 and p27^[…]. The PCR assay was performed in a volume of 50 μl, containing 4μl DNA template, 45 μl Platinum PCR Supermix (Invitrogen) and 0.2 μM each specific primer. PCR specificity and efficiency were improved by using hot start PCR with 3 min pre-denaturation, at 95° C., and 30 cycles of denaturation (95° C., 30 s), annealing (52° C., 30 s) and 1 min extension (72° C.). The PCR products (20 INS>μl) were analyzed by means of 1% agarose in tris-acetate ethylenediaminetetraacetic acid gel electrophoresis and visualized by ethidium bromide staining under ultraviolet; digital images were analyzed by means of a FUJI Medical System (FUJIFILM) and the bands quantified by Quantity Software (FUJIFILM). […] was used to normalize the variable RNA loading in each sample. The calculated result represents the relative expression levels of target genes compared with its expression in the control group after the value of target genes was normalized to GAPDH expression levels.
# [2] = tested on: human ovarian granulosa cells; settings: 50 μM for 3 days; cited from earlier work
smiles,measurement,setting,value
"CCCCCCCCCCCCCCCCCC(=O)O [stearate, Stearic acid]",Caspase-3 activity,caspase-3,increased significantly
same,Cells in the S phase,[1],reduced
same,Number of cells in G0/G1 and G2/M,[1]; also in complete media and with EGF,increased
same,Phosphorylation of ERK,ERK,increased
same,Rho mRNA expression,Rho mRNA; over 24 h,neither EGF nor stearate affected
same,RhoA mRNA expression,Rho mRNA; stearate 50 μM for 48 h,significantly decreased
same,RhoB mRNA expression,Rho mRNA; stearate 50 μM for 48 h,remained unchanged
same,RhoC mRNA expression,Rho mRNA; stearate 50 μM for 48 h,significantly decreased
same,Total Rho mRNA expression,Rho mRNA; stearate 50 μM for 48 h,significantly decreased
same,Cell viability,[2],no decrease
